“Also recorded” adds a separate entry of the source.
Test: Stability of the aldehyde in solution
Assay type: physicochemical
Details: slowly converts into 1

**Q.** For tumonolide aldehyde [compound 2], which stability is on record?
**A.** not stable; also recorded: poor stability
